Measurements taken from article PMC6158189, “A pharmacological probe identifies cystathionine β-synthase as a new negative regulator for ferroptosis” (Cell Death & Disease, 2018).

Molecular target: T1, endogenous hCBS in HepG2 cells (Homo sapiens, UniProt P35520)
T1 construct: effects of CH004 on the activity of endogenous CBS by incubating with HepG2; endogenous in cells; host or cells: HepG2
T1 sequence (P35520 1-551): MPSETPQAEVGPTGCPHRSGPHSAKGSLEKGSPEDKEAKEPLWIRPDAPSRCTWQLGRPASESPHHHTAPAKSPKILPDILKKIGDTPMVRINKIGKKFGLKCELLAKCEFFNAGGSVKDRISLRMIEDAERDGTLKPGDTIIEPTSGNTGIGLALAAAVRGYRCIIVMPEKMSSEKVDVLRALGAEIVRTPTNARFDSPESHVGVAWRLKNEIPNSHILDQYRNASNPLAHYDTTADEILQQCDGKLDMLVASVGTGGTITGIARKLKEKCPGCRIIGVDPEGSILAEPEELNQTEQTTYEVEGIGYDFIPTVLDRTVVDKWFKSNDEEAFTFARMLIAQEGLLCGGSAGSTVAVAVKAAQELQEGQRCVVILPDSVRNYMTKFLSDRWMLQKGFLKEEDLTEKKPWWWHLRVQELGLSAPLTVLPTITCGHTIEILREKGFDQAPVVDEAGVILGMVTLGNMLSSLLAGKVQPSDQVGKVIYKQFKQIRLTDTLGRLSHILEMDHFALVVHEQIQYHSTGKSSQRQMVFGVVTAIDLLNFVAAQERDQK
Test: endogenous H2S in HepG2 cells (AzMC probe)
Format: cell-based
Conditions: for decrease in H2S: HepG2
Protocol: Fig. 3 The effect of CH004 on the activity of endogenous hCBS in cells. a CH004 dose-dependently elevates the levels of Hcys in HepG2 and HEK293T cells. HepG2 cells or HEK293T cells were incubated with indicated CH004 or DMSO (control) for 12 h. The amount of total Hcys in cells was measured by ELISA using Axis® Homocysteine EIA kit (IBL, AX51301) (“Materials and Methods” section). […] HepG2 cells were treated with indicated DMSO, CH004 or HA for 8 h before the staining with AzMC probe. The amount of the H2S (blue) was quantified and is shown in (c). Bars, 50 μm. Control (CTR), DMSO group (100%). A representative fluorescence image from three independent experiments is shown. Means ± SDS (n = 3). d CH004 elevates Hcys in the peripheral blood of rats. The total Hcys of the blood samples collected from the anesthetized rats at the 75 min time point (Materials and Methods) were quantified by ELISA (see above). Means ± SDS (n = 6).
H2S levels in living cells were detected using a H2S-specific fluorescent probe according to a protocol described previously[31],[55]. To measure H2S in transiently transfected HEK293T cells, the cells were seeded on poly-D-Lys-coated coverslips (Thermo Scientific, Waltham, MA, USA) in 12-well plates at a density of ~ 1 × 10^5 cells per well, and hCBS or hCSE plasmids were transiently transfected by X-tremeGENE HP DNA Transfection Reagent according to the manufacturer’s protocol (Roche, Basel, Switzerland). After 24 h, the transfected cells were treated with DMSO or inhibitors for another 8 h, followed by staining with 7-azide-4-methylcoumarin (AzMC; Sigma-Aldrich). Similarly, HEK293T cells stably expressing CBS WT, Q222A mutant or EV were seeded on poly-D-Lys-coated coverslips in 12-well plates for one day before treatment with DMSO or inhibitors for 8 h. After incubation with 50 μM AzMC at 37 °C for 30 min, the cells were washed 4 times with PBS, and the fluorescent images were recorded with excitation by 405 nm laser by using a A1Si (Nikon) confocal microscope. The intensity of the blue fluorescent signals, indicating the amount of H2S, was quantified by ImageJ software (NIH, Bethesda, ML). The H2S signal was then corrected for the background signal detected in HEK293T cells transiently or stably expressing of empty vector (HEK293T-EV) and normalized by the corresponding cell-occupying area and compared with the control (DMSO group, 100%). Similarly, the H2S signal in HepG2 cells was quantified by AzMC staining, corrected for the background signal outside the cells, normalized by the cell area and expressed as percentages of DMSO control (100%).
To elucidate the subcellular localization of H2S, HepG2 cells were seeded on poly-D-Lys-coated coverslips in 12-well plates. After treatment with DMSO or inhibitors for 8 h, cells were sequentially incubated with 200 nM Mito-Tracker® Green and 50 μM AzMC for 30 min at 37 °C in PBS, and then fluorescent images were taken using a confocal microscope.
Figure S9. The effect of AOAA on the level of endogenous H2S in HepG2 cells. […] HepG2 cells were incubated with 0 (DMSO control), 1, 5 or 10 mM AOAA for 8 h before staining with 50 μM AzMC. Upper panels, the overlaid images; middle panels, the corresponding fluorescent images (blue, H2S); the lower panels, the bright-field images. Bars: 50 μm. (B) Quantification of the mean fluorescent density of H2S (blue). The intensity of H2S was accordingly quantified and normalized by correcting for the background signal outside cells. Data was expressed as percentages of the control (DMSO group, 100%). Means ± SDs (n=3). One-way ANOVA with Bonferroni post-tests was used for the analysis. *, p< 0.05; ***, p< 0.001; n.s. no significance. The images are one representative from three independent experiments.

Cn1nc(Cc2ccccc2)nc2c(=O)n(C)c(=O)nc1-2 [CH004, 3-benzyl-1,6-dimethylpyrimido[5,4-e][1,2,4]triazine-5,7(1H,6H)-dione]
decrease in H2S (5 μM, 8 h): ~ 50%
decrease in H2S (20 μM, 8 h): ~ 90%
mitochondrial H2S (8 h, Mito-tracker Green and AzMC): dose-dependently decreases
potency on inhibiting production of H2S in cells compared with AOAA (CH004 vs AOAA): at least 1000 fold
